Calls of active or inactive are those of the source. No cut-off for these calls is given here.
What was measured:
LXFL 529/11 [1] = experiment: Tested for its inhibitory activity against xenograft (LXFL 529/11, lung, large cell) using a clonogenic assay; format: functional, Homo sapiens
MEXF989 [2] = experiment: Tested for its inhibitory activity against human melanoma cells (MEFX 989) using a clonogenic assay at 0.01-1.0 uM; format: functional; conditions: MEXF 989
[3] = Tested for the half life period at pH 5.0; format: ADME
MEXF989 [4] = experiment: Tested for its inhibitory activity against human melanoma cells ([…]) using a clonogenic assay at 0.01-1.0 uM; […]; format: functional, cell-based
LXFL 529/11 [5] = experiment: Tested for its inhibitory activity against xenograft (LXFL 529/11, lung, large cell) using a clonogenic assay at 0.01-1.0 uM; No activity; format: functional, cell-based; conditions: Homo sapiens

| IC90 (LXFL 529/11 [1]) | half-life [3] | Structure (SMILES) | IC70 (MEXF989 [2]) | Activity (MEXF989 [4]) | Activity (LXFL 529/11 [5]) |
| --- | --- | --- | --- | --- | --- |
| <0.01 µM | 1800 min | COc1cccc2c1C(=O)c1c(O)c3c(c(O)c1C2=O)C[C@@](O)(/C(C)=N/NC(=O)c1ccc(CN2C(=O)C=CC2=O)cc1)C[C@@H]3OC1CC(N)C(O)C(C)O1 (stereo not given in full) | 0.022 µM | – | – |
| <0.01 µM | 1200 min | COc1cccc2c1C(=O)c1c(O)c3c(c(O)c1C2=O)C[C@@](O)(/C(C)=N/NC(=O)c1cccc(N2C(=O)C=CC2=O)c1)C[C@@H]3OC1CC(N)C(O)C(C)O1 (stereo not given in full) | 0.39 µM | – | – |
| 0.03 µM | – | COc1cccc2c1C(=O)c1c(O)c3c(c(O)c1C2=O)C[C@@](O)(C(C)=O)C[C@@H]3O[C@H]1C[C@H](N)[C@H](O)[C@H](C)O1 [DAUNORUBICIN] | 0.26 µM | – | – |
| – | – | COc1cccc2c1C(=O)c1c(O)c3c(c(O)c1C2=O)C[C@@](O)(C(C)=O)C[C@@H]3OC1CC(NC(=O)c2cccc(N3C(=O)C=CC3=O)c2)C(O)C(C)O1 (stereo not given in full) | – | inactive | inactive |

From ChEMBL document CHEMBL1150981, “Synthesis of new maleimide derivatives of daunorubicin and biological activity of acid labile transferrin conjugates” (Bioorg Med Chem Lett, 1997)
